Assays:
Human plasma kallikrein = target: T1, Human plasma kallikrein (Homo sapiens, UniProt P03952); test: Plasma Kallikrein Assay; assay type: biochemical; settings: purified Human plasma kallikrein 0.5 nM, substrate Acetyl-K-P-R-AFC, HEPES pH 7.4, fluorescence 405 Ex/510 Em; read-out: PKal IC50
T1 construct: yields a heavy chain (371 amino acids) and a light chain (248 amino acids); purchased Enzyme Research Laboratories
Experimental: (§1) The effectiveness of a compound of the present invention as an inhibitor of plasma kallikrein can be determined using a relevant purified serine protease, and an appropriate synthetic substrate. The rate of hydrolysis of the chromogenic or fluorogenic substrate by the relevant serine protease was measured both in the absence and presence of compounds of the present invention. Assays were conducted at rt or at 37° C. […] A decrease in the rate of fluorescence change in the presence of inhibitor is indicative of enzyme inhibition. Such methods are known to one skilled in the art. The results of this assay are expressed as the half-maximal inhibitory concentrations (IC50), or the inhibitory constant, Ki.
Plasma kallikrein determinations were made in 50 mM HEPES buffer at pH 7.4 containing 150 mM NaCl, 5 mM CaCl2), and 0.1% PEG 8000 (polyethylene glycol: Fisher Scientific). Determinations were made using purified Human plasma kallikrein at a final concentration of 0.5 nM (Enzyme Research Laboratories) and the synthetic substrate, Acetyl-K-P-R-AFC (Sigma #C6608) at a concentration of […].
Activity assays were performed by diluting a stock solution of substrate at least tenfold to a final concentration ≤0.2 Km into a solution containing enzyme or enzyme equilibrated with inhibitor. Times required to achieve equilibration between enzyme and inhibitor were determined in control experiments. The reactions were performed under linear progress curve conditions and fluorescence increase measured at 405 Ex/510 Em nm. Values were converted to percent inhibition of the control reaction (after subtracting 100% Inhibition value). IC50 was determined by inflection point from a four parameter logistic curve fit. Ki was calculated using the Cheng Prusoff equation, Ki=IC50/(1+([S]/Km)).

human factor XIa = human factor XIa (Homo sapiens, UniProt P03951); test: Factor XIa Assay; assay type: biochemical; settings: human factor XIa 0.04 nM, 30 min pre-incubation at 25° C., substrate GPR-AFC, pH 7.4, 60 min incubation; read-out: FXIa IC50
Sequence of human factor XIa (P03951 388-625 limits assumed): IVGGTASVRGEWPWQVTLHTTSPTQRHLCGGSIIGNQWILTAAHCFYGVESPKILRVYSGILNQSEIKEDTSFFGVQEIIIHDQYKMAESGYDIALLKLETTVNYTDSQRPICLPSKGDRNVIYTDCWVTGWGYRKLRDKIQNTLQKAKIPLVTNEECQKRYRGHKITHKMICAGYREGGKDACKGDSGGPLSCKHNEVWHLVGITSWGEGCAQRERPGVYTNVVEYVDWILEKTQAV
Sequence of human factor XIa (P03951 19-387 partner limits assumed): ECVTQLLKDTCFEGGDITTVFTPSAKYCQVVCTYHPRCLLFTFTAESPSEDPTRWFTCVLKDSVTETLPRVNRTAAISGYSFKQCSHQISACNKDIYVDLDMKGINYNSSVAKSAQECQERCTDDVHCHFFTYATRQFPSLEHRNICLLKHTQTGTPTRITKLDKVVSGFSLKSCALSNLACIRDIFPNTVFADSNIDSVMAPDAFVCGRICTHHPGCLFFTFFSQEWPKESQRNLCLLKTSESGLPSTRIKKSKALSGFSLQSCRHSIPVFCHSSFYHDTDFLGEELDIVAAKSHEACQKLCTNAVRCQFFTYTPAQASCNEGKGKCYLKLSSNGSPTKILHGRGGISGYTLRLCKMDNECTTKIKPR
Experimental: as §1, with “Coagulation factor XIa” for “plasma kallikrein”
Compounds were pre-incubated for 30 min at 25° C. with human (0.04 nM) factor XIa in 50 mM HEPES buffer with 150 mM sodium chloride, 5 mM calcium chloride, 0.1% PEG 8000, pH 7.4. factor XIa enzymatic activity was determined by addition of the substrate glycine-proline-arginine-7-amido-4-trifluoromethylcoumarin (GPR-AFC) and measurement of the fluorescence at 400/505 nm after a 60 min incubation at 25° C. The % inhibition for each data point was calculated from the data and analyzed using the log (inhibitor) vs. response four parameters equation to determine the half-maximal inhibitory concentrations (IC50). The IC50 were converted to equilibrium inhibitory constants (Ki) using the Cheng-Prusoff equation.

T1 sequence (P03952 391-638 limits assumed): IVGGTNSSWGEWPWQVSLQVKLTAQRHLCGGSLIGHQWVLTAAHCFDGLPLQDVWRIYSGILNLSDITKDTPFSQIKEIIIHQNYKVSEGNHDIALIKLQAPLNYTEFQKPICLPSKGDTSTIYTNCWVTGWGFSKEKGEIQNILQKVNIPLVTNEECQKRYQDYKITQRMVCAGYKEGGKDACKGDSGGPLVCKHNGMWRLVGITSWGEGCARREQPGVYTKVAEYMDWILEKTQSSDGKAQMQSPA
T1 sequence (P03952 20-390 partner limits assumed): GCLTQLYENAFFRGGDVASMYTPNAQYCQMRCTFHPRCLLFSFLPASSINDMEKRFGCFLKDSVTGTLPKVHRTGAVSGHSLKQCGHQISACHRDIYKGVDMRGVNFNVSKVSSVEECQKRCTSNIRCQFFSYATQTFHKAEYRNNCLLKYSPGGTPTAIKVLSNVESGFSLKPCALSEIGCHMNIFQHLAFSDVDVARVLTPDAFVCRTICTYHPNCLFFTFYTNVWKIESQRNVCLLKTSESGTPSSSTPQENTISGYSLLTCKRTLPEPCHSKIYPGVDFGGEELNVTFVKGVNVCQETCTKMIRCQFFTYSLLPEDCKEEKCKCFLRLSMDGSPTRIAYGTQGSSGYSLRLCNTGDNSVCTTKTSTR

| SMILES | IC50 (Human plasma kallikrein) [nM] | IC50 (human factor XIa) [nM] |
| --- | --- | --- |
| Nc1cc(-c2ccccc2Cl)nn1CC(=O)N1CC[C@@]2(C1)OC(=O)Nc1ccc(Cl)c(F)c12 [Example 43, (R)-1′-(2-(5-Amino-3-(2-chlorophenyl)-1H-pyrazol-1-yl)acetyl)-6-chloro-5-fluorospiro[benzo[d][1,3]oxazine-4,3′-pyrrolidin]-2(1H)-one] | 3.2 | 187 |
| Nc1cc(-c2cncc(Br)c2)nn1CC(=O)N1CC[C@@]2(C1)OC(=O)Nc1ccc(Cl)c(F)c12 [Example 44, (R)-1′-(2-(5-Amino-3-(5-bromopyridin-3-y1)-1H-pyrazol-1-yl)acetyl)-6-chloro-5-fluorospiro[benzo[d][1,3]oxazine-4,3'-pyrrolidin]-2(1H)-one] | 11.2 | 389 |
| Cc1ccc(-c2cc(N)n(CC(=O)N3CC[C@@]4(C3)OC(=O)Nc3ccc(Cl)c(F)c34)n2)n1C [Example 45, (R)-1′-(2-(5-Amino-3-(1,5-dimethyl-1H-pyrrol-2-y1)-1H-pyrazol-1-yl)acetyl)-6-chloro-5-fluorospiro[benzo[d][1,3]oxazine-4,3′-pyrrolidin]-2(1H)-one] | 40.3 | 2760 |
| Nc1cc(-c2ccc(F)cc2F)nn1CC(=O)N1CC[C@@]2(C1)OC(=O)Nc1ccc(Cl)c(F)c12 [Example 46, (R)-1′-(2-(5-Amino-3-(2,4-difluorophenyl)-1H-pyrazol-1-yl)acetyl)-6-chloro-5-fluorospiro[benzo[d][1,3]oxazine-4,3′-pyrrolidin]-2(1H)-one] | 5 | 263 |
| Nc1cc(-c2ccc(F)c(F)c2)nn1CC(=O)N1CC[C@@]2(C1)OC(=O)Nc1ccc(Cl)c(F)c12 [Example 47, (R)-1′-(2-(5-Amino-3-(3,4-difluorophenyl)-1H-pyrazol-1-yl)acetyl)-6-chloro-5-fluorospiro[benzo[d][1,3]oxazine-4,3′-pyrrolidin]-2(1H)-one] | 14.3 | 739 |
| Nc1cc(-c2cc3ccccc3o2)nn1CC(=O)N1CC[C@@]2(C1)OC(=O)Nc1ccc(Cl)c(F)c12 [Example 48, (R)-1′-(2-(5-Amino-3-(benzofuran-2-y1)-1H-pyrazol-1-yl)acetyl)-6-chloro-5-fluorospiro[benzo[d][1,3]oxazine-4,3′-pyrrolidin]-2(1H)-one] | 7.8 | 1400 |
| Cn1ncc(-c2cc(N)n(CC(=O)N3CC[C@@]4(C3)OC(=O)Nc3ccc(Cl)c(F)c34)n2)c1C(F)(F)F [Example 49, (R)-1′-(2-(5-Amino-1′-methyl-5′-(trifluoromethyl)-1H,1′H-[3,4′-bipyrazol]-1-yl)acetyl)-6-chloro-5-fluorospiro[benzo[d][1,3]oxazine-4,3′-pyrrolidin]-2(1H)-one] | 1.4 | 184 |
| Nc1cc(-c2ccccc2C(F)(F)F)nn1CC(=O)N1CC[C@@]2(C1)OC(=O)Nc1ccc(Cl)c(F)c12 [Example 50, (R)-1′-(2-(5-Amino-3-(2-(trifluoromethyl)phenyl)-1H-pyrazol-1-yl)acetyl)-6-chloro-5-fluorospiro[benzo[d][1,3]oxazine-4,3′-pyrrolidin]-2(1H)-one] | 5.4 | 422 |
| COc1cccc(OC)c1-c1cc(N)n(CC(=O)N2CC[C@@]3(C2)OC(=O)Nc2ccc(Cl)c(F)c23)n1 [Example 51, (R)-1′-(2-(5-Amino-3-(2,6-dimethoxyphenyl)-1H-pyrazol-1-yl)acetyl)-6-chloro-5-fluorospiro[benzo[d][1,3]oxazine-4,3′-pyrrolidin]-2(1H)-one] | 23.5 | 1770 |
| Nc1cc(C2CCCCC2)nn1CC(=O)N1CC[C@@]2(C1)OC(=O)Nc1ccc(Cl)c(F)c12 [Example 52, (R)-1′-(2-(5-Amino-3-cyclohexy1-1H-pyrazol-1-yl)acetyl)-6-chloro-5-fluorospiro[benzo[d][1,3]oxazine-4,3′-pyrrolidin]-2(1H)-one] | 20.7 | 426 |
| CC1(C)C(c2cc(N)n(CC(=O)N3CC[C@@]4(C3)OC(=O)Nc3ccc(Cl)c(F)c34)n2)C1(C)C [Example 53, (R)-1′-(2-(5-Amino-3-(2,2,3,3-tetramethylcyclopropyl)-1H-pyrazol-1-yl)acetyl)-6-chloro-5-fluorospiro[benzo[d][1,3]oxazine-4,3′-pyrrolidin]-2(1H)-one] | 11.5 | 320 |
| Cc1ccccc1-c1cc(N)n(CC(=O)N2CC[C@@]3(C2)OC(=O)Nc2ccc(Cl)c(F)c23)n1 [Example 54, (R)-1′-(2-(5-Amino-3-(o-tolyl)-1H-pyrazol-1-yl)acetyl)-6-chloro-5-fluorospiro[benzo[d][1,3]oxazine-4,3′-pyrrolidin]-2(1H)-one] | 5.1 | 289 |
| Nc1cc(-c2ccccc2OC(F)(F)F)nn1CC(=O)N1CC[C@@]2(C1)OC(=O)Nc1ccc(Cl)c(F)c12 [Example 55, (R)-1′-(2-(5-Amino-3-(2-(trifluoromethoxy)phenyl)-1H-pyrazol-1-yl)acetyl)-6-chloro-5-fluorospiro[benzo[d][1,3]oxazine-4,3′-pyrrolidin]-2(1H)-one] | 2.5 | 287 |
| Nc1cc(-c2ccccc2F)nn1CC(=O)N1CC[C@@]2(C1)OC(=O)Nc1ccc(Cl)c(F)c12 [Example 56, (R)-1′-(2-(5-Amino-3-(2-fluorophenyl)-1H-pyrazol-1-yl)acetyl)-6-chloro-5-fluorospiro[benzo[d][1,3]oxazine-4,3′-pyrrolidin]-2(1H)-one] | 4.6 | 165 |
| Nc1cc(-c2ccccc2Br)nn1CC(=O)N1CC[C@@]2(C1)OC(=O)Nc1ccc(Cl)c(F)c12 [Example 57, (R)-1′-(2-(5-Amino-3-(2-bromophenyl)-1H-pyrazol-1-yl)acetyl)-6-chloro-5-fluorospiro[benzo[d][1,3]oxazine-4,3′-pyrrolidin]-2(1H)-one] | 2.5 | 190 |
| Nc1cc(-c2ccccc2I)nn1CC(=O)N1CC[C@@]2(C1)OC(=O)Nc1ccc(Cl)c(F)c12 [Example 58, (R)-1′-(2-(5-Amino-3-(2-iodophenyl)-1H-pyrazol-1-yl)acetyl)-6-chloro-5-fluorospiro[benzo[d][1,3]oxazine-4,3′-pyrrolidin]-2(1H)-one] | 5.7 | 430 |
| Nc1cc(-c2c(F)cc(F)cc2F)nn1CC(=O)N1CC[C@@]2(C1)OC(=O)Nc1ccc(Cl)c(F)c12 [Example 59, (R)-1′-(2-(5-Amino-3-(2,4,6-trifluorophenyl)-1H-pyrazol-1-yl)acetyl)-6-chloro-5-fluorospiro[benzo[d][1,3]oxazine-4,3′-pyrrolidin]-2(1H)-one] | 3.7 | 195 |
| Cc1cc(-c2cc(N)n(CC(=O)N3CC[C@@]4(C3)OC(=O)Nc3ccc(Cl)c(F)c34)n2)no1 [Example 60, (R)-1′-(2-(5-Amino-3-(5-methylisoxazol-3-y1)-1H-pyrazol-1-yl)acetyl)-6-chloro-5-fluorospiro[benzo[d][1,3]oxazine-4,3′-pyrrolidin]-2(1H)-one] | 24.3 | 862 |
| Nc1cc(C2C3COCC32)nn1CC(=O)N1CC[C@@]2(C1)OC(=O)Nc1ccc(Cl)c(F)c12 (stereo partly drawn) [Example 61, (4R)-1′-(2-(5-Amino-3-(3-oxabicyclo[3.1.0]hexan-6-y1)-1H-pyrazol-1-yl)acetyl)-6-chloro-5-fluorospiro[benzo[d][1,3]oxazine-4,3′-pyrrolidin]-2(1H)-one] | 27.2 | 791 |
| COc1ccccc1-c1cc(N)n(CC(=O)N2CC[C@@]3(C2)OC(=O)Nc2ccc(Cl)c(F)c23)n1 [Example 62, (R)-1′-(2-(5-Amino-3-(2-methoxyphenyl)-1H-pyrazol-1-yl)acetyl)-6-chloro-5-fluorospiro[benzo[d][1,3]oxazine-4,3′-pyrrolidin]-2(1H)-one] | 6.6 | 505 |
